These results are taken from ChEMBL document CHEMBL1201862, “PubChem BioAssay data set” (2004).

Molecules are shown by their SMILES. Activity calls are given as the source filed them.

For test [1], the target named is T1, Type-1 angiotensin II receptor (Homo sapiens, UniProt P30556).
T1 sequence (P30556 whole entry): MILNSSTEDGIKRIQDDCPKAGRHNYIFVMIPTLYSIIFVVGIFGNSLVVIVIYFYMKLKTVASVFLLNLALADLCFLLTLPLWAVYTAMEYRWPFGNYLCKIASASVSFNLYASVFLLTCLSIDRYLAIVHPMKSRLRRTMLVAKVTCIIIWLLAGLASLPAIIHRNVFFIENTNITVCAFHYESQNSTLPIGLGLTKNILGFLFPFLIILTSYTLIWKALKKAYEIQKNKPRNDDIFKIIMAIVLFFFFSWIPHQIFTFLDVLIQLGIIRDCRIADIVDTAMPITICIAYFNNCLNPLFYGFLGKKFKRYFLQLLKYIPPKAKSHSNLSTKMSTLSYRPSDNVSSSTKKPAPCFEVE
In words: antagonism of angiotensin II type 1 receptor – cell-based, uHTS hits, selectivity assay for APJ receptor antagonist project, dose response (AID 463214).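 Further: antagonist potency against angiotensin II stimulated AT1 response.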 The class given is functional.

The nature of test [2]: reduction of Shn3 3'UTR-driven luciferase in osteoblasts – cell-based, Clone20 osteoblasts, firefly luciferase, cherry-picked, dose response (AID 624132).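 Further: firefly luciferase luminescence from reporter carrying the Shn3 3'UTR in osteoblasts.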 The test is classed as functional.
Test [3] is described as follows: loss of viability in HepG2 cells – cell-based, CellTiter-Glo, cherry-picked, cytotoxicity control for Shn3 inhibitor project, dose response (AID 624134). The test is classed as functional. A general note: Cellular ATP, detected with luciferase, serves as a proxy for viable cell number.
Test [4] in a line: cells. The test is classed as functional, cell-based.
A short description of test [5]: cells. The class given is functional, cell-based. The source holds these as a separate data set.
Test [6] deals with Beta-galactosidase (Escherichia coli, UniProt Q8VNN2). Briefly: PubChem AID 485352. The class given is functional.
Chain of Beta-galactosidase (Q8VNN2 whole entry): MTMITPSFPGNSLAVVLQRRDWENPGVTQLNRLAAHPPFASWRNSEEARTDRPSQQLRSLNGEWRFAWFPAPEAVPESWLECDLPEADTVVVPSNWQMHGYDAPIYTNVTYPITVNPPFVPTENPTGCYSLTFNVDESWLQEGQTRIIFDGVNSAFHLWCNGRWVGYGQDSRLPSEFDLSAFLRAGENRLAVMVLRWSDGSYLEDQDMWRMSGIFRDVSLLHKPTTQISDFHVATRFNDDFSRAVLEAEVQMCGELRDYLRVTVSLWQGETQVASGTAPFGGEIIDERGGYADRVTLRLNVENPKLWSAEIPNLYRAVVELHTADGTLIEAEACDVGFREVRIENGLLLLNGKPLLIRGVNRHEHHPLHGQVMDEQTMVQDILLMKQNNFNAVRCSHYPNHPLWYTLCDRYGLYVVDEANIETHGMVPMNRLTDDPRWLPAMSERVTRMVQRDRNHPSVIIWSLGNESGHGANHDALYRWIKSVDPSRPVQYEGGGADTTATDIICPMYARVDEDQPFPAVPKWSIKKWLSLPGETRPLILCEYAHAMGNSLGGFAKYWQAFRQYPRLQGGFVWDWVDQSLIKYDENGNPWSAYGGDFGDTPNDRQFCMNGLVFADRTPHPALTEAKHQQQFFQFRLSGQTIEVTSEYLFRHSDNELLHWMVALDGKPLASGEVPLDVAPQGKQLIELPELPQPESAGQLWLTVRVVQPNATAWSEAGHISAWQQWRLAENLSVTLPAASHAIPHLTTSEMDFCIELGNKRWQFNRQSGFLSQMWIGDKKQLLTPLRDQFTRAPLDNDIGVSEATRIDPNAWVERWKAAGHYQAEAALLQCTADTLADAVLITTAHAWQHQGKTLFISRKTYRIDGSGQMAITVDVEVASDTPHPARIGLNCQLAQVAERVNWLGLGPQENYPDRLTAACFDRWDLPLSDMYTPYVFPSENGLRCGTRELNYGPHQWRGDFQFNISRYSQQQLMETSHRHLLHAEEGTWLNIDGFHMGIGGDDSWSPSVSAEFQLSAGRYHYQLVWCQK
Test [7] deals with T2, Heat shock factor protein 1 (Mus musculus, UniProt P38532).
T2 sequence (P38532 whole entry): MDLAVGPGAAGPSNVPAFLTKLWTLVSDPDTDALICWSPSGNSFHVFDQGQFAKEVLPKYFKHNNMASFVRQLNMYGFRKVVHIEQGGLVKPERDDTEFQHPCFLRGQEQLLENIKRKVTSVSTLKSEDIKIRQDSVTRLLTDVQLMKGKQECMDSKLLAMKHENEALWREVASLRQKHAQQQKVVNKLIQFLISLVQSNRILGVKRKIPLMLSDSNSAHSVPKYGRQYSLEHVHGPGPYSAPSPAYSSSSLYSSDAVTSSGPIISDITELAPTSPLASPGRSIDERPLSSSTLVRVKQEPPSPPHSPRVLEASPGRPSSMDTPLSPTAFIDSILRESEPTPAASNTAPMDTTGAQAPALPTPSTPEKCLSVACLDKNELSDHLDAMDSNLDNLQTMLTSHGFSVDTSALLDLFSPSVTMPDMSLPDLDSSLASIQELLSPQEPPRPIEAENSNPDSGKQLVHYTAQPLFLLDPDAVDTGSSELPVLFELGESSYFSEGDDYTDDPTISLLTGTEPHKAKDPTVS
In words: decrease of HSF1-responsive luciferase luminescence – cell-based, NIH3T3, dose retest, confirmation (AID 2382).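 Further: NIH3T3 fibroblasts with HSF1-driven luciferase reporter stressed by proteasome inhibitor MG132; luminescence from HSF1-driven luciferase expression after 8 hours of MG132 stress.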 The class given is functional.

For test [8], the target named is Neurotensin receptor type 1 (Homo sapiens, UniProt P30989). The class given is functional.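 Further: Image-based confirmatory dose-response assay measuring agonist activity at NTR1; NTR1-expressing U2OS osteosarcoma cells imaged for beta-arrestin GFP spot formation; agonist potency where compounds increase beta-arrestin recruitment.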
Chain of Neurotensin receptor type 1 (P30989 whole entry): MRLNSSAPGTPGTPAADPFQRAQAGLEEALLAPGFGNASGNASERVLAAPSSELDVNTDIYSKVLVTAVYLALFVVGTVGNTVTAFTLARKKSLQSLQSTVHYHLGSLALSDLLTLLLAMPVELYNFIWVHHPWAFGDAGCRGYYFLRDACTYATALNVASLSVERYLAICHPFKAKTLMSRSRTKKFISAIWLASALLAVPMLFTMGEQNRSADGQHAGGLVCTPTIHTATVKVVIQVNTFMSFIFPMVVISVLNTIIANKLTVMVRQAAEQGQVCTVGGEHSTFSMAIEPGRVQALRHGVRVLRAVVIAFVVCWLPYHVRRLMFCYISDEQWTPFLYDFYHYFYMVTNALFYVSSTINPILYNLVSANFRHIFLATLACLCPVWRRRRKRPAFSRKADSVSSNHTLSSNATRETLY
A short description of test [9]: non-specific 3'UTR reporter inhibition in Clone20-Shn3RL – cell-based, Renilla luciferase, cherry-picked, counter-screen for Shn3 inhibitor project, dose response (AID 624133). The class given is functional. On the technique in general: Counterscreens check selectivity or assay interference.
In test [10] the target is T3, Sentrin-specific protease 8 (Homo sapiens, UniProt Q96LD8).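 Further: luminescence read-out of SENP8 inhibition, dose-response confirmation following an ultra-high-throughput screen.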
T3 sequence (Q96LD8 whole entry): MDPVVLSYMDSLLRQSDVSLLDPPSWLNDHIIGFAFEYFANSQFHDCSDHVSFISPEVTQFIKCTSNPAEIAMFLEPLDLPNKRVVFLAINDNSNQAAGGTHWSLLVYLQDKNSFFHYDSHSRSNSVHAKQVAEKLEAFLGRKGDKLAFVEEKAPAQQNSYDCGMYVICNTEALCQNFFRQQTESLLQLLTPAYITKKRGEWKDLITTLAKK
The test is classed as functional.

For test [11], the target named is T4, Sentrin-specific protease 7 (Homo sapiens, UniProt Q9BQF6).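 Further: Luminescence-based dose-response confirmation of ultra-high-throughput screening hits, measuring inhibition of SENP7.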
T4 sequence (Q9BQF6 whole entry): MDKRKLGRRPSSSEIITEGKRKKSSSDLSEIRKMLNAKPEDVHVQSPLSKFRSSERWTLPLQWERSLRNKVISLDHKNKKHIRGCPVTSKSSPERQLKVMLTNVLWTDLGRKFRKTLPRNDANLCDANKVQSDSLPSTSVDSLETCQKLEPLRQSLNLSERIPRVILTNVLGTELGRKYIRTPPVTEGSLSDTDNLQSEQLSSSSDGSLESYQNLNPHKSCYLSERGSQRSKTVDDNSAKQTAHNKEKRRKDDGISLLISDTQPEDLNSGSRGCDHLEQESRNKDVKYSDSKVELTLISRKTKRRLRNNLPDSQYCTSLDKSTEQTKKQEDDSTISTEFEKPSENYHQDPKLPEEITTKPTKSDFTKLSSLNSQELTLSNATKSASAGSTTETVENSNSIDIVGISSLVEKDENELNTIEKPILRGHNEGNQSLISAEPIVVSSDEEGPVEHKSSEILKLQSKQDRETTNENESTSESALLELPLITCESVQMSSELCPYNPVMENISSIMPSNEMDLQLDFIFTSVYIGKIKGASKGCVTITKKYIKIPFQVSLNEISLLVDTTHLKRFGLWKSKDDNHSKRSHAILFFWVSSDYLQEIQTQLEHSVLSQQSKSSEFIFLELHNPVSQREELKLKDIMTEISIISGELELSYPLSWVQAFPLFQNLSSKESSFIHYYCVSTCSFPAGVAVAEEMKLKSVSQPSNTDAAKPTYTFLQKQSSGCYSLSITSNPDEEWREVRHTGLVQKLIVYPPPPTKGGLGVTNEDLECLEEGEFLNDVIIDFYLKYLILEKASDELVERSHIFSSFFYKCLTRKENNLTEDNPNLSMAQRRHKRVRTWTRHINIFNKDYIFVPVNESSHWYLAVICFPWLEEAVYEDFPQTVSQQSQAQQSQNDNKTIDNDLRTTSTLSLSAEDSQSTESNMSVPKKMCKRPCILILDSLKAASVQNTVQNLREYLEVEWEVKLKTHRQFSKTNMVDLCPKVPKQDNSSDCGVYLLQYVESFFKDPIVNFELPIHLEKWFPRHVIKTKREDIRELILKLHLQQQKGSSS
The class given is functional.

The target in test [12] is T5, Protein skinhead-1 (Caenorhabditis elegans, UniProt P34707).
T5 sequence (P34707 whole entry): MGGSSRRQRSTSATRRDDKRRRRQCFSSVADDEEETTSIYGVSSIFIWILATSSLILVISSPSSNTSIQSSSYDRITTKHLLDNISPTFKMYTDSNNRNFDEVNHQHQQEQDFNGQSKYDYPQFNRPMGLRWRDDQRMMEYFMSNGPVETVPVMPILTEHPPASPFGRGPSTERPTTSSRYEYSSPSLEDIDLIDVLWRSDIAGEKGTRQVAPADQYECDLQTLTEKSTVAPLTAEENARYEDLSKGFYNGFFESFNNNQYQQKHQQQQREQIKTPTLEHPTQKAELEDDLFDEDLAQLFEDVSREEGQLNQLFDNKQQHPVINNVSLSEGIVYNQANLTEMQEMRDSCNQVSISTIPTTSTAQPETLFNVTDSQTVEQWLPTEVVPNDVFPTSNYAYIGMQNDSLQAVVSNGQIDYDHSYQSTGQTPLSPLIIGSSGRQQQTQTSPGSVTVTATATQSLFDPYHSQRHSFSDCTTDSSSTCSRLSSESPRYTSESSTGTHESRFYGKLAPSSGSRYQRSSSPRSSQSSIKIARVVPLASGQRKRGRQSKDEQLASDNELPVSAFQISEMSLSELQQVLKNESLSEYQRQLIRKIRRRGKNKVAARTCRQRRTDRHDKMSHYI
The class given is functional.

For test [13], the target named is T6, Sentrin-specific protease 6 (Homo sapiens, UniProt Q9GZR1).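 Further: Luminescence-based dose-response confirmatory assay of SENP6 inhibition, following up an ultra-high-throughput screen.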
T6 sequence (Q9GZR1 whole entry): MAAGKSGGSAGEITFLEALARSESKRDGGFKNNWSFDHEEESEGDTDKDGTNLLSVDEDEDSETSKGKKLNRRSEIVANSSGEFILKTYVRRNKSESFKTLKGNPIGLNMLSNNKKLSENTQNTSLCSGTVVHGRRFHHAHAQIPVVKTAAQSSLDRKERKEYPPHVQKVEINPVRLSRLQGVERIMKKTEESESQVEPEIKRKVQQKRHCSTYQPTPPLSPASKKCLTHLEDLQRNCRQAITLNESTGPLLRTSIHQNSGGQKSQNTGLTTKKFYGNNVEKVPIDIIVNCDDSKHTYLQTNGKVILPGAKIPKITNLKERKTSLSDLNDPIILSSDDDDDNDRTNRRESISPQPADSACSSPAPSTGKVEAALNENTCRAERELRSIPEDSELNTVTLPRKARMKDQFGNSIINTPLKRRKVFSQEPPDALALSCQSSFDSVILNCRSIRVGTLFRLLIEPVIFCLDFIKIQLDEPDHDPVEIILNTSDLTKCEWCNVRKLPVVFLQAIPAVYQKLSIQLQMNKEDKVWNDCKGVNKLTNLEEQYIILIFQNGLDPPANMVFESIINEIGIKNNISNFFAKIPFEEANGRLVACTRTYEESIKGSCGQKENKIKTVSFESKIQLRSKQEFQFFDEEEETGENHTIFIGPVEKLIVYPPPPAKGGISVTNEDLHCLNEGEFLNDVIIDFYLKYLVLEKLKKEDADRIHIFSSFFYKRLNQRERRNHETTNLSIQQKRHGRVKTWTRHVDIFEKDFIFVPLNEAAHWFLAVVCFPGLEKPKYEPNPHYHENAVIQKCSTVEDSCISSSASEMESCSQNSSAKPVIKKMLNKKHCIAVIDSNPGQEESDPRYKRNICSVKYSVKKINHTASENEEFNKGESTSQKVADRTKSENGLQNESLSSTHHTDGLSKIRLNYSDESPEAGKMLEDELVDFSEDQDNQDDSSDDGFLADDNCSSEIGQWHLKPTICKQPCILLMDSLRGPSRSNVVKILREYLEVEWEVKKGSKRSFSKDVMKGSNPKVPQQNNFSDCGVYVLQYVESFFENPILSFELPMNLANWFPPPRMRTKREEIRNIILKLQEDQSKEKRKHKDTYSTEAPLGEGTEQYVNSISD
The test is classed as functional.

Test [14] concerns the target Metabotropic glutamate receptor 4 (Rattus norvegicus, UniProt P31423). In words: Modulation of the Metabotropic Glutamate Receptor mGluR4: Rat PAM Potency. [Related pubchem assays (depositor defined):AID2437, AID2807]. The class given is functional.
For test [15], the target named is Metabotropic glutamate receptor 4 (Homo sapiens, UniProt Q14833). Briefly: Modulation of the Metabotropic Glutamate Receptor mGluR4: Potency at human mGluR4. Modulation of intracellular Ca2+ using Fluo-4, AM, in CHO expressing recombinant receptor [Related pubchem assays (depositor defined):AID2437, AID2807]. The test is classed as functional, cell-based.
Chain of Metabotropic glutamate receptor 4 (Homo sapiens, UniProt Q14833) (Q14833 whole entry): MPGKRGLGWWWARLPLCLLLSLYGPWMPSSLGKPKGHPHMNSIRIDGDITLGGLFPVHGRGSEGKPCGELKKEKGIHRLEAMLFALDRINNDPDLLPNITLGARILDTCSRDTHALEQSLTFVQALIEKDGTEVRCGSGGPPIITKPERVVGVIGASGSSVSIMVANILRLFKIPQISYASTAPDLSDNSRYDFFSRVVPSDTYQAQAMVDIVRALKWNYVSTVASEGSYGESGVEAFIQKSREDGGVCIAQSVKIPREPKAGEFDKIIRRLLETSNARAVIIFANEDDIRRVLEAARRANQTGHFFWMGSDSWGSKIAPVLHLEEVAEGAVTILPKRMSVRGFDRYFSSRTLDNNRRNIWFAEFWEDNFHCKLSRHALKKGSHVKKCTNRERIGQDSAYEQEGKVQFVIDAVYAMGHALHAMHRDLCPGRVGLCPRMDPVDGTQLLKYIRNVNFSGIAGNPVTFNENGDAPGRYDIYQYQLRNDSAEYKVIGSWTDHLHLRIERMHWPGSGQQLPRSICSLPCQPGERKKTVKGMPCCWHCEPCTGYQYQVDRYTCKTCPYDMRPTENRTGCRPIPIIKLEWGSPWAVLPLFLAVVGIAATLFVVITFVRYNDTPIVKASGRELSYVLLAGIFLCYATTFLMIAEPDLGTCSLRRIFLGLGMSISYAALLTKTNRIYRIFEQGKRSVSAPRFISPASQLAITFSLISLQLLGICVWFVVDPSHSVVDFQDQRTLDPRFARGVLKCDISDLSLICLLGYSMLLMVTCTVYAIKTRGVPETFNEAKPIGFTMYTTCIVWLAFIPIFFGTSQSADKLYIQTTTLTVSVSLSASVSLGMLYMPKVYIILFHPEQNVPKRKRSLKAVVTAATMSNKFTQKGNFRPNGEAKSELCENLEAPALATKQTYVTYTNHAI
The target in test [16] is T7, Caspase-3 (Homo sapiens, UniProt P42574).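 Further: Dose-response selectivity test against caspase-3 for candidate inhibitors of sentrin-specific proteases (SENPs).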
T7 sequence (P42574 whole entry): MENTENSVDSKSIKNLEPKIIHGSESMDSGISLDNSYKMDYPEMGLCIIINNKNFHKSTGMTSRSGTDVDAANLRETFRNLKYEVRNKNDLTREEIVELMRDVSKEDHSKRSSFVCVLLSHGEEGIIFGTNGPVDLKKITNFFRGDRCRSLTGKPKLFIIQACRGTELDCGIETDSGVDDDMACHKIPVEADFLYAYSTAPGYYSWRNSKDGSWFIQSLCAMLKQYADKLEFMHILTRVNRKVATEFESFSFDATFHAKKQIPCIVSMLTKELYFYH
The test is classed as functional.

Chain of Metabotropic glutamate receptor 4 (Rattus norvegicus, UniProt P31423) (P31423 whole entry): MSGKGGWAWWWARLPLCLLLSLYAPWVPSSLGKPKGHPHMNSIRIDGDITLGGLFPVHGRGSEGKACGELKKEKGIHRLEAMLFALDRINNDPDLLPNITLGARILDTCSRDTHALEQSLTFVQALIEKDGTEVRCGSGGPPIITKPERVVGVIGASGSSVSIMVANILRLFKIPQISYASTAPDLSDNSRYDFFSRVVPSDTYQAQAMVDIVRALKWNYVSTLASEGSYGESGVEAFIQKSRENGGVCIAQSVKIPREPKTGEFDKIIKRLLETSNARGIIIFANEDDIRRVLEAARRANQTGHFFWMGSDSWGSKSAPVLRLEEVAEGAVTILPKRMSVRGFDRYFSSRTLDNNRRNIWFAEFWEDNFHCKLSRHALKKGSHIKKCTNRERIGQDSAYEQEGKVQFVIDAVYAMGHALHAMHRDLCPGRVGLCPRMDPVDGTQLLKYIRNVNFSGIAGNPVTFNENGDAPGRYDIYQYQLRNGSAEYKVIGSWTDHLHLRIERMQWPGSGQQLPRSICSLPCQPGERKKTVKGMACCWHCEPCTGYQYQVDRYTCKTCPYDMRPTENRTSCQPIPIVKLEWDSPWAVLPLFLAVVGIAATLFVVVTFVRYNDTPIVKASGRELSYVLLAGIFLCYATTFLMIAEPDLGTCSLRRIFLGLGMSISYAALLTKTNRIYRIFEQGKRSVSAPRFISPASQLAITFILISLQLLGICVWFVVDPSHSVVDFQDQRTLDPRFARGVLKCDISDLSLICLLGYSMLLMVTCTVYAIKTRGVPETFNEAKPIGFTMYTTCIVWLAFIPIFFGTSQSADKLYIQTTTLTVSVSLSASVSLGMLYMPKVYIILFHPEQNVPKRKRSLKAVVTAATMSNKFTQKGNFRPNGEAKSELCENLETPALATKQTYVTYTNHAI

One may read the IC50 as the concentration at which inhibition is half-maximal. Usually AC50 stands for the concentration at which the activity in the assay is half-maximal. In general, EC50 refers to the concentration at which the effect is half-maximal. For `CC(=O)OCCCNc1cc(Sc2ccc(C)cc2)c2nonc2c1[N+](=O)[O-]`, the IC50 in test [1] is 1.56 µM (active). In addition, the AC50 in [2] is 1.1 µM (active); in test [3], > 70 µM (inactive); in test [9] it was 12.4 µM (active). Further, the EC50 in test [4] is > 350 µM (not active); in test [5], > 350 µM (not active); in [6] it was > 40 µM (inactive); in test [7] it was > 195 µM (not active); in test [8] it was 5.83 µM (active).

Regarding `O=C(Nc1ccc(Cl)c(Cl)c1)c1ccco1`, the IC50 in test [10] was 21.7 µM (active); in test [11], 5.24 µM (active); in test [12], 24.4 µM (active); in test [13], 18.3 µM (active); in test [16] it was 17 µM (active). For the same compound, the EC50 is 3.58 µM (active) in test [14] and 4.54 µM (active) in test [15].
